Source: ChEMBL document CHEMBL5465560, “Selectivity Literature for EUbOPEN Chemogenomic Library” (2024)

Tests used:
[1] = biological target: BMP-2-inducible protein kinase (Homo sapiens) (UniProt Q9NSY1); conditions: at 10 µM
[2] = biological target: Serine/threonine-protein kinase Nek6 (Homo sapiens) (UniProt Q9HC98); conditions: at 10 µM
[3] = biological target: TGF-beta receptor type-2 (Homo sapiens) (UniProt P37173); assay: Selectivity interaction (KinomeScan (DiscoverX)) EUB0000092b TGFBR2; conditions: at 10 µM
Sequence of TGF-beta receptor type-2 (Homo sapiens) (P37173 whole entry): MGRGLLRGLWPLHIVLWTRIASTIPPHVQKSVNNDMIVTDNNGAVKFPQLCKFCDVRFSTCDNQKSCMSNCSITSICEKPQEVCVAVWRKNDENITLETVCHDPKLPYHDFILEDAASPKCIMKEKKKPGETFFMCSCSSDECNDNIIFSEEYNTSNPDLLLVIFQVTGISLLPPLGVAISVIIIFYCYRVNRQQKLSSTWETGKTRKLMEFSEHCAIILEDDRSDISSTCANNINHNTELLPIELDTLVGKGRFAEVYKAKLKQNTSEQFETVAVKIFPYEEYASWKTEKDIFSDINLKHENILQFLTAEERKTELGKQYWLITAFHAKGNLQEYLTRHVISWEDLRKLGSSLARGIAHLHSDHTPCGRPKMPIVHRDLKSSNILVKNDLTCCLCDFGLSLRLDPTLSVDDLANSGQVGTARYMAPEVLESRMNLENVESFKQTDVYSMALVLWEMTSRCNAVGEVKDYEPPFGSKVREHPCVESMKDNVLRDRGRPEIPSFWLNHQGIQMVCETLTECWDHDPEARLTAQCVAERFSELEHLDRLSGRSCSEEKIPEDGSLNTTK

[4] = biological target: T1, Rhodopsin kinase GRK1 (Homo sapiens) (UniProt Q15835); assay: Selectivity interaction (KinomeScan (DiscoverX)) EUB0000655a GRK1; conditions: at 10 µM
T1 sequence (whole entry): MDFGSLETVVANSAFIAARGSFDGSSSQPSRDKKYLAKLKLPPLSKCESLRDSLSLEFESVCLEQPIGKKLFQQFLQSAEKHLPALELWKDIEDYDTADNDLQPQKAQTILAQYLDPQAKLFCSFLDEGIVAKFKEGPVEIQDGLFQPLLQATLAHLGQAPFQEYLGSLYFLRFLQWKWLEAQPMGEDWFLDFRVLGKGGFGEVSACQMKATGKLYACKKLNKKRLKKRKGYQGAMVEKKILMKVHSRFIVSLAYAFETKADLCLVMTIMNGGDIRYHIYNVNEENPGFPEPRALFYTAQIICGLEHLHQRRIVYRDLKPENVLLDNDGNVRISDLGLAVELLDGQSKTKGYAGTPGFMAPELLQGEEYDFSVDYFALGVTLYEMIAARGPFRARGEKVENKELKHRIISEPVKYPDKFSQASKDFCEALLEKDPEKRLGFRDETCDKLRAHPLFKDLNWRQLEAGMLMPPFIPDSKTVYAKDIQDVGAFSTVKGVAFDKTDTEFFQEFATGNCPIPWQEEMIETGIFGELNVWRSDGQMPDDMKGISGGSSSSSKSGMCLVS

[5] = biological target: Aurora kinase B (Homo sapiens, UniProt Q96GD4); assay: Selectivity interaction (KinomeScan (DiscoverX)) EUB0000666a AURKB; conditions: at 10 µM
Sequence of Aurora kinase B (Q96GD4 whole entry): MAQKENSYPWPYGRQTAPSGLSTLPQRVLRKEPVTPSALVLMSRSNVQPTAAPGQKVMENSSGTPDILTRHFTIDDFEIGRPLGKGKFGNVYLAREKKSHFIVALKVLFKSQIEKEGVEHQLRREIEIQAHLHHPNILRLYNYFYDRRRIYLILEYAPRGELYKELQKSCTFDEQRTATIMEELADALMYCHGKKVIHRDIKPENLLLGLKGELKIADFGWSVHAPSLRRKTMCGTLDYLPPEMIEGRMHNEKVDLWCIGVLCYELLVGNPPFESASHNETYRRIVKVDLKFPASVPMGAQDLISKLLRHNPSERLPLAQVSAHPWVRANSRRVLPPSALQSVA

[6] = biological target: CDK3/cyclin E (Homo sapiens) (UniProt P24864+O96020+Q00526); assay: Selectivity interaction (Millipore kinase profiler) EUB0000124b CDK3; type: protein-complex assay; conditions: at 10 µM
[7] = biological target: Vascular endothelial growth factor receptor 1 (Homo sapiens) (UniProt P17948); assay: Selectivity interaction (Kinase panel (DSF assay)) EUB0001489b FLT1
[8] = biological target: CDK4/Cyclin D3 (Homo sapiens) (UniProt P11802+P30281); conditions: at 10 µM
[9] = biological target: STE20-like serine/threonine-protein kinase (Homo sapiens, UniProt Q9H2G2); conditions: at 10 µM
[10] = biological target: Phosphatidylinositol 4-kinase beta (Homo sapiens, UniProt Q9UBF8); assay: Selectivity interaction (ActivX KiNativ screen (kinase selectivity in THP-1 cell lysates)) EUB0000639a PI4KB; type: subcellular; conditions: lysate, at 0.01 µM
Sequence of Phosphatidylinositol 4-kinase beta (Q9UBF8 2-816 limits assumed): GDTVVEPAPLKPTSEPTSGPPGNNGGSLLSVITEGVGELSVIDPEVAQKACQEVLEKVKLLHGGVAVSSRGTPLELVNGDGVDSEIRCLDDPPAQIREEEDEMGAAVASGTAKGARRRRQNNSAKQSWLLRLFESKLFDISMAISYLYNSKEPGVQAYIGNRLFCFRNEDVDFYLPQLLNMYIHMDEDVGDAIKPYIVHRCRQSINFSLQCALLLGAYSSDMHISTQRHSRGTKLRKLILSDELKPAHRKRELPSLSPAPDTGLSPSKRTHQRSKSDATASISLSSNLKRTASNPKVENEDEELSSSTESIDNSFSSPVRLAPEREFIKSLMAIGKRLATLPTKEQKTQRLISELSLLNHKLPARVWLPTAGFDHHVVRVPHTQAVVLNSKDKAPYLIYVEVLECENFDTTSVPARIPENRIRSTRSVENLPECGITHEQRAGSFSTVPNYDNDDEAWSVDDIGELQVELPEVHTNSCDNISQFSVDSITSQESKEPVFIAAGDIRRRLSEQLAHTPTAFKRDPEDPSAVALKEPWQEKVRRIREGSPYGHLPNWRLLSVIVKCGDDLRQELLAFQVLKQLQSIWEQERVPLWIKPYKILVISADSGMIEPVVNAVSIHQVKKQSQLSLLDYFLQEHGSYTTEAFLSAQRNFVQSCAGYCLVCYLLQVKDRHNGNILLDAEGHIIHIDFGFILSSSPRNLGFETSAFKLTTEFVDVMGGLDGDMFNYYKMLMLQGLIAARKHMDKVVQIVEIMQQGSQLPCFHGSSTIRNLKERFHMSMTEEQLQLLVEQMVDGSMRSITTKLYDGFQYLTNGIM

[11] = biological target: Calcium/calmodulin-dependent protein kinase kinase 2 (Homo sapiens) (UniProt Q96RR4); assay: Selectivity interaction (ActivX KiNativ screen (kinase selectivity in THP-1 cell lysates)) EUB0000639a CAMKK2; type: subcellular; conditions: lysate, at 5 µM
Sequence of Calcium/calmodulin-dependent protein kinase kinase 2 (Homo sapiens) (Q96RR4 2-588 limits assumed): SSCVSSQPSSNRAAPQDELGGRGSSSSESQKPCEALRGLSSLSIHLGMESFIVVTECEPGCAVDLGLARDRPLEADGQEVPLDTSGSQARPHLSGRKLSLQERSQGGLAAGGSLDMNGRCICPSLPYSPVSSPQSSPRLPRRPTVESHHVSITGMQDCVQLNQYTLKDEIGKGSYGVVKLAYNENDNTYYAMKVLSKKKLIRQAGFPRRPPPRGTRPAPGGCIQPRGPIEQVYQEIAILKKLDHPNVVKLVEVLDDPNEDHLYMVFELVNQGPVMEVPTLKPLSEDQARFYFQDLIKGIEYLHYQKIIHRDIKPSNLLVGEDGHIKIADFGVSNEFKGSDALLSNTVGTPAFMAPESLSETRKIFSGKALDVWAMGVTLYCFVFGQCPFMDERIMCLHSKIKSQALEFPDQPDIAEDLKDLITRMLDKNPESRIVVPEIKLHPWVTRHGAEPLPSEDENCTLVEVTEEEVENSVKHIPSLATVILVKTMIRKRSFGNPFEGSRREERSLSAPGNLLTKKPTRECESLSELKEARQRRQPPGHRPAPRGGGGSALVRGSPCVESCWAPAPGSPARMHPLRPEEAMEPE

[12] = biological target: Protein kinase C eta type (Homo sapiens) (UniProt P24723); assay: Selectivity interaction (Kinase panel (Invitrogen)) EUB0000639a PRKCH; conditions: at 200 nM
Sequence of Protein kinase C eta type (Homo sapiens) (P24723 whole entry): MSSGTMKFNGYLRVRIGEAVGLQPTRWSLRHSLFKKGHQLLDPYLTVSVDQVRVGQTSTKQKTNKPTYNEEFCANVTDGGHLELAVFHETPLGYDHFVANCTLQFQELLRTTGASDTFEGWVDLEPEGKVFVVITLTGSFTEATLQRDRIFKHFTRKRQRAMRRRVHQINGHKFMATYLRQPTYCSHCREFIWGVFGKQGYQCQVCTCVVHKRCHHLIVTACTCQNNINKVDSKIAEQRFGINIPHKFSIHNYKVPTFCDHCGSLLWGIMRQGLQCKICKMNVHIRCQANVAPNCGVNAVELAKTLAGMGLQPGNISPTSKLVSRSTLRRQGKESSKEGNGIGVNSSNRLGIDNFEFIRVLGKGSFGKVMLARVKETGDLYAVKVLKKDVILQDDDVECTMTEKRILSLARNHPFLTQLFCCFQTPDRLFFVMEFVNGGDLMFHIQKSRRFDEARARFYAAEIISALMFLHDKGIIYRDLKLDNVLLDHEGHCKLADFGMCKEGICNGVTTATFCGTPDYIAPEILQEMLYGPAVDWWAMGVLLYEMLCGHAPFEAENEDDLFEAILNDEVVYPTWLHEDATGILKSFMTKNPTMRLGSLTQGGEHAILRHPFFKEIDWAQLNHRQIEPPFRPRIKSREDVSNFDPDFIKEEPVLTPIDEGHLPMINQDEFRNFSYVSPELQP

[13] = biological target: Microtubule-associated serine/threonine-protein kinase 3 (Homo sapiens) (UniProt O60307); assay: Selectivity interaction (ActivX KiNativ screen (kinase selectivity in THP-1 cell lysates)) EUB0000639a MAST3; type: subcellular; conditions: lysate
Sequence of Microtubule-associated serine/threonine-protein kinase 3 (Homo sapiens) (O60307 whole entry): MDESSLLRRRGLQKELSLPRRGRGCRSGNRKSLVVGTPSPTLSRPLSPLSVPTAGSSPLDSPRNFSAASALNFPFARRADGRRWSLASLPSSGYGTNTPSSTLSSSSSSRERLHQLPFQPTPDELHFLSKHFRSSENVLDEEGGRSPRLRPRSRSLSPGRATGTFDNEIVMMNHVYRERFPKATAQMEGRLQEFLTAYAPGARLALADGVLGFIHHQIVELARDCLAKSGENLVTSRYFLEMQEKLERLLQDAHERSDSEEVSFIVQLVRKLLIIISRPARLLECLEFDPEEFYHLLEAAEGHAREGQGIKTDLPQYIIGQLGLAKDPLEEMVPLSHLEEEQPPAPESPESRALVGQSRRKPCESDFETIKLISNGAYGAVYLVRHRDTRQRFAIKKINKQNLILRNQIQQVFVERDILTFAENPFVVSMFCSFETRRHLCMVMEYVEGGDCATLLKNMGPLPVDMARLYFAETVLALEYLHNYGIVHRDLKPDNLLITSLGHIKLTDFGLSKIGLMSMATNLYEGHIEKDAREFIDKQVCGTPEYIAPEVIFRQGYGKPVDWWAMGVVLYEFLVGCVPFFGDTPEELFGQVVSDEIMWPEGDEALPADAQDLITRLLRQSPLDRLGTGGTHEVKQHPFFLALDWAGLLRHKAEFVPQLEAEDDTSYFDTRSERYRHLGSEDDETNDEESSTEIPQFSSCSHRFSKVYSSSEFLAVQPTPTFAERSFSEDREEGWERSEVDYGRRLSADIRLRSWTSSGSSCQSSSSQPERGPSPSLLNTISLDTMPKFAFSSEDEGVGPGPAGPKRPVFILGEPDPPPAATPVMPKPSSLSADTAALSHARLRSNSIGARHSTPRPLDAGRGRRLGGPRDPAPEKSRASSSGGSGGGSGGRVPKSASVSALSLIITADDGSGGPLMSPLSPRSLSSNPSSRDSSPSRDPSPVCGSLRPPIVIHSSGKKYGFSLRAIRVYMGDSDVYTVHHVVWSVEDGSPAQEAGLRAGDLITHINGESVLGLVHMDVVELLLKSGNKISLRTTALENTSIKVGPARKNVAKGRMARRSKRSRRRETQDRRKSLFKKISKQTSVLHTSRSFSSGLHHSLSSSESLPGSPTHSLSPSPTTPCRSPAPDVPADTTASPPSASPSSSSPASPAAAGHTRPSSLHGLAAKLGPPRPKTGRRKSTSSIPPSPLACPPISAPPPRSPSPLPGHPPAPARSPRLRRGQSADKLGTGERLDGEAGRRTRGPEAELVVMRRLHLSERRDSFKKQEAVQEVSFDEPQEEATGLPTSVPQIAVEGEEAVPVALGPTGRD

[14] = biological target: Tyrosine-protein kinase ABL1 (Homo sapiens, UniProt P00519); assay: Selectivity interaction (Kinase panel (Invitrogen)) EUB0000639a ABL1; conditions: at 200 nM
[15] = biological target: Homeodomain-interacting protein kinase 1 (Homo sapiens, UniProt Q86Z02); assay: Selectivity interaction (SelectScreen profiling (Invitrogen)) EUB0000607a HIPK1; conditions: at 2 µM
[16] = biological target: Cyclin-dependent kinase 13 (Homo sapiens, UniProt Q14004); assay: Selectivity interaction (KinomeScan (DiscoverX)) EUB0000595a CDK13; conditions: at 10 µM
[17] = biological target: T2, Hormonally up-regulated neu tumor-associated kinase (Homo sapiens) (UniProt P57058); assay: Selectivity interaction (KinomeScan (DiscoverX)) EUB0000045b HUNK
T2 sequence (whole entry): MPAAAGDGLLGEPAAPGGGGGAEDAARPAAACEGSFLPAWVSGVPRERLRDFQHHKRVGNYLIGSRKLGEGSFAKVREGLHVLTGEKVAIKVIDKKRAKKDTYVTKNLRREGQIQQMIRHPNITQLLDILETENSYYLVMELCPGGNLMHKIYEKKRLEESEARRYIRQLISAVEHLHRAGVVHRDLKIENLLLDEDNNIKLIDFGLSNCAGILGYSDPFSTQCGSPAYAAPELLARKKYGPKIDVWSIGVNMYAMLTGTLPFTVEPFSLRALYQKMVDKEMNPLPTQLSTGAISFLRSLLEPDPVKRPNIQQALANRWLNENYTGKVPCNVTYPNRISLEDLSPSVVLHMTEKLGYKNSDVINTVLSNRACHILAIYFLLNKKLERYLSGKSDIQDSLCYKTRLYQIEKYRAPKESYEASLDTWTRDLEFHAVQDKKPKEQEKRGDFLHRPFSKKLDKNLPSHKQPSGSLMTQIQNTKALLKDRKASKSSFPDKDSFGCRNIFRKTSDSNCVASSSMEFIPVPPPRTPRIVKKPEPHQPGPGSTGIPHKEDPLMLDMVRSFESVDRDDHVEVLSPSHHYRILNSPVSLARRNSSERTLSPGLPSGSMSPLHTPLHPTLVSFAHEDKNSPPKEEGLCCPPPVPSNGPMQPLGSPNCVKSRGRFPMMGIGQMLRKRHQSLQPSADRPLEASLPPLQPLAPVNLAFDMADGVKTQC

[18] = biological target: Rho-associated protein kinase 2 (Homo sapiens, UniProt O75116); assay: Selectivity interaction (Ambit KINOMEscan and KiNATiv profiling in Jurkat cells) EUB0000090b ROCK2; type: cell-based; conditions: at 1 µM

Sequence of Serine/threonine-protein kinase Nek6 (Homo sapiens) (Q9HC98 whole entry): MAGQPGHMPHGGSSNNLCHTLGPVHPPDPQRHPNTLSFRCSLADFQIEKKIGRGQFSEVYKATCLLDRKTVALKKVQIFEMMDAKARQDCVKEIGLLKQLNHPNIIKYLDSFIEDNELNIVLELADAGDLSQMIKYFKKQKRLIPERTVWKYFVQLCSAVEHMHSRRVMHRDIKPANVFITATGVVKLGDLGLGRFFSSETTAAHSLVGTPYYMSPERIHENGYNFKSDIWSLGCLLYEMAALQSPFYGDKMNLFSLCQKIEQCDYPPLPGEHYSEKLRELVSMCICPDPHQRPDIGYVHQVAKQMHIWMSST

CCN(CC)CCCCNc1ncc2cc(-c3cc(OC)cc(OC)c3)c(NC(=O)NC(C)(C)C)nc2n1 gave a % of control [1] of 100% and a % of control [2] of 100%.

Work on CCC(=O)N1CCN(c2ccc(-n3c(=O)ccc4cnc5ccc(-c6cnc7ccccc7c6)cc5c43)cc2C(F)(F)F)CC1 yielded a % of control [3] of 77%.

For CN(C)CCOc1ccc(-c2nc(-c3ccncc3)c(-c3ccc4c(c3)CC/C4=N\O)[nH]2)cc1, the % of control [4] was 91%.

O=C(NOC[C@H](O)CO)c1ccc(F)c(F)c1Nc1ccc(I)cc1F gave a % of control [5] of 99%.

For CC(=O)Nc1cccc(-n2c(=O)n(C3CC3)c(=O)c3c(Nc4ccc(I)cc4F)n(C)c(=O)c(C)c32)c1, the % of control [6] was 101%.

With CN1CCN(C(=O)c2ccc3cc2OCCOCCNc2ccn4ncc-3c4n2)CC1 the dTM [7] was 2.9 K.

Cc1cc([C@@H](C)Nc2ccccc2C(=O)O)c2nc(N3CCOCC3)cc(=O)n2c1 [AZD-6482] showed a % of control [8] of 100% and a % of control [9] of 100%.

In the case of CC[C@@H]1[C@H](F)C(=O)N[C@@H]1COc1nccc2cc(C(N)=O)c(OC)cc12 [ZIMLOVISERTIB], the % of inhibition [10] is reported as 1.7%, the % of inhibition [11] is reported as 56.9% and the % of inhibition [12] is reported as 7.47%. The % of inhibition ([13]; at 0.01 µM) was 11.4%, the % of inhibition ([13]; at 0.04 µM) was 9.3% and the % of inhibition ([13]; at 0.2 µM) was 2.6%. The % of inhibition ([13]; at 1 µM) was 4.8%, the % of inhibition ([13]; at 5 µM) was 32.1% and the % of inhibition [14] was 2.34%.

Molecule CNC(=O)Nc1ccc(-c2nc(N3CC4CCC(C3)O4)c3cnn(C4CCC5(CC4)OCCO5)c3n2)cc1 has a % of inhibition [15] of 1%.

COCC(=O)NC/C=C/c1ccc2ncnc(Nc3ccc(Oc4ccc(C)nc4)c(C)c3)c2c1 [CP-724714] was tested, and the % of control [16] was 100%.

With C=CC(=O)Nc1cc(-n2c(=O)ccc3cnc4ccc(-c5ccc(NS(C)(=O)=O)cc5)cc4c32)ccc1C the % of control ([17]; at 1 µM) was 85% and the % of control ([17]; at 10 µM) was 100%.

For CN(C)C/C=C/C(=O)Nc1ccc(C(=O)N2CCCC(Nc3ncc(Cl)c(-c4c[nH]c5ccccc45)n3)C2)cc1 (stereo not drawn), the % of control [18] was 69%.
